Source: US20230302022A1, “PREVENTING OR MITIGATING CHEMOTHERAPY INDUCED ALOPECIA USING VITAMIN D” (priority 2016, published 2023)

Columns and labels:
[1] = tested on: SKMEL-28 (melanoma); experiment: Cell growth / viability assay, SKMEL-28; type: cell-based
Protocol: (§1) The drug treatment period was usually three days. At the end of the three days, the background OD of the 96-well plate was read at 280 nm, before 20 μL of the “Substrate Cell Titer 96 Aqueous One Solution Reagent” (Promega) was added to each well. […] The net OD increase was calculated by subtracting the pre-substrate OD reading. The impact of the drug on the cells was calculated by comparing the OD at different concentrations in relation to the OD of the control wells (without the drug). The results of the Net OD as a function of drug concentration was plotted and used to determine ED50 values.

[2] = tested on: Gottingen Minipigs; experiment: 4-week dermal toxicity study in Gottingen Minipigs; conditions: twice daily, 29 consecutive days, 2.1 mL
Protocol: Observations for morbidity, mortality, injury, and the availability of food and water were conducted twice daily for all animals. Clinical observations were conducted weekly.

[3] = tested on: MCF-7 (breast cancer with p53 mutation); experiment: Cell growth / viability assay, MCF-7; type: cell-based
Protocol: (§2) The drug treatment period was usually three days. At the end of the three days, the background OD of the 96-well plate was read at 280 nm, before 20 μL of the “Substrate Cell Titer 96 Aqueous One Solution Reagent” (Promega) was added to each well. The plate was returned to the 37° C. incubator, and its OD at 490 nm was read each hour until an OD of approximately 1.5 was reached. The net OD increase was calculated by subtracting the pre-substrate OD reading.
(§3) The impact of the drug on the cells was calculated by comparing the OD at different concentrations in relation to the OD of the control wells (without the drug).
(§4) Then these pretreated cells were utilized to set up the cell based assay.

[4] = Preliminary animal toxicology study; type: in vivo; conditions: dose of about 100 μg
[5] = tested on: HepG2 (liver cancer); experiment: Cell growth / viability assay, HepG2; type: cell-based
Protocol: as §2, §3, §4

[6] = tested on: Sprague Dawley rats; experiment: Cyclophosphamide-induced alopecia in neonatal Sprague Dawley rats, 1,25(OH)2D3 in ethanol; type: in vivo, rat; conditions: 0.2 μg 1,25(OH)2D3 in 150 μL ethanol daily day 5-10, all animals
Protocol: Neonatal Rat model and PCA model. Sprague Dawley rats were purchased from Charles River Laboratories (Wilmington, MA). C3H/HeJ mouse were purchased from Jackson Laboratories (Bar Harbour, ME). Rodents were housed and fed according to NIH guidelines. […] Uskokovic (Hoffman-La Roche, Nutley, NJ). For experiments involving C3H/HeJ mice, 1,25(OH)2D3 was purchased from Sigma (St. Louis, M0). Topical application of 1,25(OH)2D3. 1,25(OH)2D3 was dissolved in absolute ethanol and applied topically with an applicator. Control animals were similarly treated with vehicle only. Animals were then isolated for a period of 3 hours following which the treated area was washed with soap and water and dried. For CIA experiments, 1,25(OH)2D3 was given daily beginning on day 5 after birth and ending on day 10. […] For CIA and PCA, the experimental group was treated with 0.2 μg of 1,25(OH)2D3 in 150 μL of absolute ethanol applied topically over the head and neck. In both instances, the control group received ethanol vehicle only. […] Both chemotherapies were started at 11 days of age. Alopecia was recorded on the tenth day after the first dose of chemotherapy. […] Rats were randomized into two groups of ten rats each. One group received vehicle control, while the other received 0.2 μg 1,25(OH)2D3. […] Animals were observed until complete hair regrowth was obtained.

[7] = tested on: NCI-ES-0808; experiment: Cell growth / viability assay, NCI-ES-0808; type: cell-based
Protocol: as §1

[8] = tested on: C57BL/6 mice; conditions: cited from earlier work
[9] = Quantification of calcitriol in ex vivo porcine skin layers after 7 days of dermal administration; conditions: for Stratum Corneum, Calcitriol Recovered: 10 μg/mL, mean ± SD
Protocol: The placebo and test articles were administered dermally twice daily approximately 6 hours apart for 7 days during the study. The dose concentrations were 0, 1, 3, 10, 30, and 100 μg/mL, and administered at an application rate of 4 mg/cm^2 (equivalent to 144 mg or 166 μL of test solution). Prior to initiation of administration (Days −4 and −5 for Groups 1 and 2, respectively), the hair was clipped from the application sites using an electric clipper. Care was taken to avoid abrading the skin. The dorsal surface of each animal was divided into five application sites for Group 1 and two application sites for Group 2. Each application site was approximately 6×6 cm with at least a 2 cm space between each site. The placebo and test article formulations were uniformly applied over the specified application site with a glass stirring rod or appropriate instrument. Prior to dosing, the residual test article from the previous dose was gently removed using a soft paper towel (i.e., WyPall®) moistened with tap water.
At the end of the study, the skin was reflected from a ventral midline incision, and sections of treated and untreated skin were collected and preserved. Sections of each 6×6 cm dosing site were first thoroughly surface washed with a mild soap and water mixture (e.g., 1% Ivory Soap in water or equivalent) to remove any residual topical test formulation. The washed skin sections were then wiped clean with ethanol, and were excised down to and including the adipose layer. If the area to be excised is larger than the dosed area, the dosed area was demarked with indelible ink to delineate the skin area that was dosed. The 1.5 cm×1.5 cm sections were laid flat, wrapped in two layers of Saran wrap (or equivalent) and flash frozen in liquid nitrogen. The samples were stored at −70° C. and shipped on dry ice via overnight courier for analysis. Each skin section was identified as appropriate (e.g., animal identification, study number, date, etc.).
Upon arrival at the analysis site, skin sections were placed in water tight plastic bag and thawed by emersion in warm water (˜30° C.-35° C.). Each skin section was gently rinsed with distilled de-ionized water to remove any residual test article and blood. All subcutaneous tissue (e.g., adipose) was removed by manual scalpel ablation. Within the central region of the dosed area, four individual 1 cm^2 circles (replicates) were demarked, and each site was subsequently identified and the actual area recorded. […] The skin sections were weighed and the weight recorded. […]
Following tape stripping, the skin was separated into epidermis (sans stratum corneum, simply referred to herein after as “epidermis”) and dermis by heat exposure to 60° C. for approximately 1-1.5 minutes. […] The epidermis and dermis were weighed and the weight recorded. […]

[10] = tested on: PC-3; experiment: Cell viability assay, PC-3; type: cell-based; conditions: PC-3, 0.1 μg/mL calcitriol for two passages
Protocol: as §2, §3, §4

[11] = tested on: HEKa cells; experiment: Real-time PCR Neuroscience Ion Channels and Transporters array, calcitriol-treated HEKa cells; type: cell-based, human; conditions: 0.1 μg/mL calcitriol, three independent experiments; for KCNB2 mRNA Regulation Pattern: until 24 hours
Protocol: (§5) The PCR array analysis utilized two groups of genes—those related to Heat Shock Proteins (SABiosciences), and those related to Neuroscience Ion Channels and Transporters (SABioscience). Cell culture: Primary human epidermal keratinocytes (HEKa) were maintained in Epilife Medium (Cascade Biologics, Inc., Portland OR) along with Human Keratinocyte Growth Supplement (Cascade Biologics, Inc., Portland OR). […] D3 treatment of HEKa cells: […] Vehicle control group of cells were treated with 5 mL media containing 1 μL of ethanol. Cells were harvested 3, 6, 16, 24, 48, or 72 hours after the start of the treatment. RNA isolation: Cells were lysed for RNA isolation at different treatment times using the RNeasy Mini kit (Qiagen, Inc., Valencia CA) following the manufacturer's instructions. RNA was quantified by measuring optical density at 260 nm. First Strand Synthesis: […] Real-time PCR: Products from the first strand synthesis were diluted with water, mixed with the SYBR green master mix (SABiosciences., Frederick MD) and loaded onto PCR arrays. Real time PCR was run on the PCR Arrays (Heat Shock Protein Arrays, and Neuroscience and Ion Channel Arrays) (SABiosciences, Frederick MD) on a Biorad CFX96. Data analyses were performed using the PCR array data analysis software available on the SABiosciences website.

[12] = Chemical stability; type: physicochemical
[13] = tested on: HEKa cells; experiment: Real-time PCR Heat Shock Protein array, calcitriol-treated HEKa cells; type: cell-based, human; conditions: 0.1 μg/mL calcitriol, two independent experiments
Protocol: as §5

Q: Which “effect of calcitriol on cell growth” value ([1]; SKMEL-28) does the source give for `C=C1/C(=C\C=C2/CCC[C@]3(C)[C@@H]([C@H](C)CCCC(C)(C)O)CC[C@@H]23)C[C@@H](O)C[C@@H]1O` [Calcitriol, (5Z,7E)-9,10-secocholesta-5,7.10(19Hriene-1 a,33.25-triol] here?
A: no significant growth promoting or growth inhibiting effects

Q: What about the “effect of calcitriol on the cytotoxic effect of Doxorubicin” value (from here on “effect of calcitriol … of Doxorubicin”) ([1]; SKMEL-28) of the same compound?
A: did not appear to appreciably alter

Q: And the “5-FU ED50 curve with vs without calcitriol” value ([1]; SKMEL-28, 0.1 μg/mL calcitriol)?
A: not significantly different

Q: What about the “no-observed-adverse-effect-level (NOAEL)” value [2] of the same compound?
A: 10.31 µg/mL

Q: And the “effect of calcitriol … of Doxorubicin” value ([3]; MCF-7)?
A: did not appear to appreciably alter

Q: What about the “response to doxorubicin, cisplatin and erlotinib after calcitriol exposure” value (shortened to “response … after calcitriol exposure”) ([3]; MCF-7, 0.1 μg/mL calcitriol for two passages) of the same compound?
A: did not alter

Q: And the dermal irritation [4]?
A: no dermal irritation

Q: What about the “epidermal / dermal penetration” value [4] of the same compound?
A: excellent epidermal penetration without substantial dermal penetration

Q: And the “effect of calcitriol … of Doxorubicin” value ([5]; Hep-G2)?
A: did not appear to appreciably alter

Q: What about the “5-FU ED50 curve with vs without calcitriol” value ([5]; Hep-G2, 0.1 μg/mL calcitriol) of the same compound?
A: not significantly different

Q: What about the “response … after calcitriol exposure” value ([5]; Hep-G2, 0.1 μg/mL calcitriol for two passages) of the same compound?
A: did not alter

Q: What about the cyclophosphamide-induced alopecia [6] of the same compound?
A: did not develop alopecia

Q: And the “effect of calcitriol on cell growth” value [7]?
A: no significant growth promoting or growth inhibiting effects

Q: And the “effect of calcitriol … of Doxorubicin” value [7]?
A: did not appear to appreciably alter

Q: And the “follicular apoptosis induced by cyclophosphamide” value ([8]; C57BL/6 mice, topical)?
A: significantly diminish the degree of follicular apoptosis

Q: And the “prevention of cyclophosphamide-induced alopecia” value ([8]; female C57BL/6 adolescent mice)?
A: failed to demonstrate efficacy

Q: And the “regrowth of pigmented hair shafts” value ([8]; female C57BL/6 adolescent mice)?
A: significantly accelerated, enhanced, and quantitatively improved

Q: And the “skin layers in which calcitriol was measurable” value ([9]; 1-100 μg/mL, exception: dermis at 100 μg/mL in a single male minipig)?
A: measurable in most stratum corneum and epidermal samples, but not in the dermal samples

Q: And the “applied dose correlation to epidermal tissue level” value ([9]; 3 to 100 μg/mL applications)?
A: near linear increase

Q: And the “Stratum Corneum, Calcitriol Recovered” value ([9]; Female Minipigs)?
A: 1.65 ± 1.80 (3) ng/cm^2

Q: What about the “Stratum Corneum, Calcitriol Recovered” value ([9]; Male Minipigs) of the same compound?
A: 59.6 ± 14.1 (3) ng/cm^2

Q: And the “response … after calcitriol exposure” value [10]?
A: did not alter

Q: What about the “SLC1A1 mRNA Regulation Pattern” value ([11]; at 16 hrs) of the same compound?
A: upregulated at

Q: And the “KCNN4 mRNA Regulation Pattern” value ([11]; at 48 hours)?
A: upregulated at 48

Q: And the “KCNB2 mRNA Regulation Pattern” value [11]?
A: upregulated

Q: And the “KCNB2 mRNA Regulation Pattern” value ([11]; listed as Vitamin D3)?
A: upregulated until

Q: And the “Chemical Stability” value [12]?
A: Stable at room temperature

Q: And the “DNAJC6 mRNA Regulation Pattern” value [13]?
A: Downregulated

Q: What about the “HSF4 mRNA Regulation Pattern” value [13] of the same compound?
A: Upregulated at 48 hours

Q: And the “HSPA2 mRNA Regulation Pattern” value [13]?
A: Upregulated at 48 hours

Q: What about the “HSPB1 mRNA Regulation Pattern” value [13] of the same compound?
A: Down regulated at 48 hours
